The source of these data is patent publication US9309222B2, “Phenyl linked quinolinyl modulators of RORγt” (Janssen Pharmaceutica NV, priority 2012, dated 2016).

Test [1] addresses T1, human RORγt ligand binding domain (RORγt LBD) (Homo sapiens, UniProt P51449).
T1 construct: His-tag (N); TurboTEV protease cleavage site (ENLYFQG) (N); made in house; host or cells: E. coli (pHIS1, modified pET vector)
T1 sequence (P51449 with tags, fused parts or gaps): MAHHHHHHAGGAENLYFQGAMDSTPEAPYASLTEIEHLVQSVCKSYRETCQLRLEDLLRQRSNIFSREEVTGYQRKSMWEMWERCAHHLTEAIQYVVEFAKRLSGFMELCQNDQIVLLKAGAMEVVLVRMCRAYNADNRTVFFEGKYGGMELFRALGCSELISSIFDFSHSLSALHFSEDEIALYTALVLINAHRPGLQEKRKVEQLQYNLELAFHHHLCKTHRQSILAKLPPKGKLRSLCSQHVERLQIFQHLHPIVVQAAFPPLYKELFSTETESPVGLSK
In words: RORγt ThermoFluor assay (thermal shift, ligand binding affinity). The conditions noted are these: estimated from concentration response of thermal shift. The method in brief:
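Thermal shift of 0.065 mg/mL RORγt with 60 μM 1,8-ANS in 100 mM Hepes pH 7.0, 10 mM NaCl, 2.5 mM GSH, 0.002% Tween-20. Compounds in 1:2 series from 10 mM DMSO stock. Dye fluorescence (500 nm emission) tracked versus temperature; ΔTm used to derive KD.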

A further test concerns the target T2, human RORγt LBD (Homo sapiens, UniProt P51449).
T2 construct: expressed in transfected cells
T2 sequence (P51449 258-518): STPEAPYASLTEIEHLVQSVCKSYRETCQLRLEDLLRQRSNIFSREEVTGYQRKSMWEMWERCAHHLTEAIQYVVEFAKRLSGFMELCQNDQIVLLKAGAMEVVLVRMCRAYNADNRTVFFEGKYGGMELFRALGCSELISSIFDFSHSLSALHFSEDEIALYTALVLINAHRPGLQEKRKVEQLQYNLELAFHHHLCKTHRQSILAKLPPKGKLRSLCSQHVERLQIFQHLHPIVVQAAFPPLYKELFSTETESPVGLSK
The test is described as follows: RORγt reporter assay (GAL4-RORγt LBD luciferase in HEK293T cells). The following applies: for IC50: HEK293T cells, 24 hours compound treatment; for inhibition at 6 µM: HEK-293T, read-out: RORγt reporter Assay, % inhibition @ 6 μM, HEK293T cells, 6 μM compound. The class given is cell-based. The method in brief: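 HEK293T cells transiently co-transfected with pBIND (GAL4 DBD fused to wild-type human RORγt LBD, plus SV40-driven renilla luciferase) and pGL4.31 GAL4-responsive firefly luciferase reporter. Plated in phenol-red-free DMEM with 5% lipid-reduced FCS and treated with compound for 24 h. Firefly/renilla luminescence ratio plotted against compound concentration.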

Several values for one entry are separate records, joined by “and”; a condition that tells them apart may be missing. Identical values can stand only once. Counter-ions that a name gives are not always drawn. Some results are limits rather than exact numbers.

What is called Kd is a measure of binding affinity in units of concentration. One may read the IC50 as the point on the concentration scale where inhibition reaches its midpoint. Read a high IC50 as weaker potency in that assay. The term inhibition denotes the relative decrease from the control value, in per cent. Turning to `CCN(CC)c1c(-c2ccccc2)c(Cl)nc2ccc(C(O)(c3cccnc3)c3cccc(Cl)c3)cc12` (stereo not drawn) [Example 101, [2-Chloro-4-(diethylamino)-3-phenylquinolin-6-yl](3-chlorophenyl)pyridin-3-ylmethanol•TFA], the Kd in test [1] was 2500 nM. In addition, on human RORγt LBD, the IC50 turned out to be 640 nM and the inhibition at 6 µM turned out to be 94%.

For `CCN(CC)c1nc2ccc(C(O)(c3cccnc3)c3cccc(Cl)c3)cc2c(C)c1-c1ccccc1` (stereo not drawn) [Example 103, (3-Chlorophenyl)[2-(diethylamino)-4-methyl-3-phenylquinolin-6-yl]pyridin-3-ylmethanol•TFA], the Kd in test [1] is 1400 nM. Besides, on human RORγt LBD, inhibition was half-maximal at 2200 nM (IC50) and the inhibition at 6 µM amounted to 85%.

On to `CCN(CC)c1nc2ccc(C(O)(c3cccnc3)c3cccc(Cl)c3)cc2c(OC)c1-c1ccccc1` (stereo not drawn) [Example 106, (3-Chlorophenyl)[2-(diethylamino)-4-methoxy-3-phenylquinolin-6-yl]pyridin-3-ylmethanol•TFA], for which the Kd in test [1] was 1300 nM. Besides, on human RORγt LBD, the midpoint of inhibition, the IC50, lay at 2300 nM and the inhibition at 6 µM stood at 75%.

Regarding `CN(C)c1nc2ccc(C(O)(c3ccncc3)c3cncn3C)cc2c(O)c1-c1ccccc1` (stereo not drawn) [Example 108, 2-(Dimethylamino)-6-[hydroxy(1-methyl-1H-imidazol-5-yl)pyridin-4-ylmethyl]-3-phenylquinolin-4-ol•TFA], the Kd in test [1] is 330 nM. On human RORγt LBD, 1100 nM corresponded to half-maximal inhibition (IC50) and the inhibition at 6 µM amounted to 90%.

For `OC(c1ccc(C(F)(F)F)nc1)(c1cccc(Cl)c1)c1ccc2nc(Cl)c(-c3ccccc3)c(Cl)c2c1` (stereo not drawn) [Example 111, (3-Chlorophenyl)(2,4-dichloro-3-phenylquinolin-6-yl)(6-(trifluoromethyl)pyridin-3-yl)methanol], the Kd in test [1] was 640 nM. For the same compound, at human RORγt LBD, the IC50 is 1000 nM and ~2000 nM; the inhibition at 6 µM is 77%.

Regarding `N#Cc1nc2ccc(C(O)(c3ccc(C(F)(F)F)nc3)c3cccc(Cl)c3)cc2c(C#N)c1-c1ccccc1` (stereo not drawn) [Example 114, 6-{(3-Chlorophenyl)(hydroxy) [6-(trifluoromethyl)pyridin-3-yl]methyl}-3-phenylquinoline-2,4-dicarbonitrile], the Kd in test [1] is 610 nM. Moreover, at human RORγt LBD, the IC50 was 740 nM and the inhibition at 6 µM was found to be 104%.

Take `Cn1cncc1C(O)(c1ccc2nc(C(F)(F)F)c(-c3ccccc3)c(C#N)c2c1)c1ccccn1` (stereo not drawn) [Example 118, 6-(Hydroxy(1-methyl-1H-imidazol-5-yl)(pyridin-2-yl)methyl)-3-phenyl-2-(trifluoromethyl)quinoline-4-carbonitrile•TFA]: the Kd in test [1] was 360 nM. On human RORγt LBD, the IC50 was 370 nM and the inhibition at 6 µM is 94%.

As to `Cn1ccnc1C(O)(c1ccnnc1)c1ccc2nc(Cl)c(-c3ccccc3)c(Cl)c2c1` (stereo not drawn) [Example 121, (2,4-Dichloro-3-phenylquinolin-6-yl)(1-methyl-1H-imidazol-2-yl)(pyridazin-4-yl)methanol], the Kd in test [1] is 1700 nM. Also, at human RORγt LBD, the IC50 was around 2000 nM and the inhibition at 6 µM amounted to 72%.

For the compound `Cn1ccnc1C(O)(c1ccc2nc(Cl)c(-c3ccccc3)c(Cl)c2c1)c1cnccn1` (stereo not drawn) [Example 123, (2,4-Dichloro-3-phenylquinolin-6-yl)(1-methyl-1H-imidazol-2-yl)(pyrazin-2-yl)methanol], in test [1], the Kd was 2200 nM. Also, on human RORγt LBD, the IC50 was around 6000 nM and the inhibition at 6 µM worked out at 70%.

Regarding `Cn1ccnc1C(O)(c1cncnc1)c1ccc2nc(Cl)c(-c3ccccc3)c(Cl)c2c1` (stereo not drawn) [Example 125, (2,4-Dichloro-3-phenylquinolin-6-yl)(1-methyl-1H-imidazol-2-yl)(pyrimidin-5-yl)methanol], the Kd in test [1] was 650 nM. For the same compound, on human RORγt LBD, the IC50 was found to be 1000 nM and the inhibition at 6 µM was 66%.

For the compound `Cn1cncc1C(O)(c1ccnnc1)c1ccc2nc(Cl)c(-c3ccccc3)c(Cl)c2c1` (stereo not drawn) [Example 126, (2,4-Dichloro-3-phenylquinolin-6-yl)(1-methyl-1H-imidazol-5-yl)(pyridazin-4-yl)methanol], the Kd in test [1] was 21 nM. Also, on human RORγt LBD, the IC50 is 220 nM and the inhibition at 6 µM was determined as 97%.

On to `COC(c1ccc2nc(Cl)c(-c3ccccc3)c(Cl)c2c1)(c1cnccn1)c1cncn1C` (stereo not drawn) [Example 127, 2,4-Dichloro-6-(methoxy(1-methyl-1H-imidazol-5-yl)(pyrazin-2-yl)methyl)-3-phenylquinoline•TFA], for which the Kd in test [1] was 990 nM. In addition, at human RORγt LBD, 1600 nM corresponded to half-maximal inhibition (IC50) and the inhibition at 6 µM came out at 88%.

Regarding `Cc1noc(C)c1C(O)(c1ccc(Cl)cc1)c1ccc2nc(Cl)c(-c3ccccc3)c(Cl)c2c1` (stereo not drawn) [Example 133, (4-Chlorophenyl)(2,4-dichloro-3-phenylquinolin-6-yl)(3,5-dimethylisoxazol-4-yl)methanol•TFA], the Kd in test [1] is 1500 nM. Also, on human RORγt LBD, the 50% inhibitory concentration (IC50) was above 6000 nM and the inhibition at 6 µM came to 41%.

In the case of `Cn1nncc1C(O)(c1ccc(Cl)cc1)c1ccc2nc(Cl)c(-c3ccccc3)c(Cl)c2c1` (stereo not drawn) [Example 144, (4-Chlorophenyl)(2,4-dichloro-3-phenylquinolin-6-yl)(1-methyl-1H-1,2,3-triazol-5-yl)methanol], the Kd in test [1] was 260 nM. In addition, at human RORγt LBD, the IC50 turned out to be 520 nM and the inhibition at 6 µM came to 102%.

Take `Cc1nc2cc(C(O)(c3ccc4nc(Cl)c(-c5ccccc5)c(Cl)c4c3)c3cncn3C)ccc2o1` (stereo not drawn) [Example 146, (2,4-Dichloro-3-phenylquinolin-6-yl)(1-methyl-1H-imidazol-5-yl)(2-methylbenzo[d]oxazol-5-yl)methanol]: in test [1], the Kd is 77 nM. For the same compound, on human RORγt LBD, the IC50 came to 130 nM and the inhibition at 6 µM turned out to be 112%.

`COCCCn1cncc1C(O)(c1ccc(Cl)cc1)c1ccc2nc(Cl)c(-c3ccccc3)c(Cl)c2c1` (stereo not drawn) [Example 147, (4-Chlorophenyl)(2,4-dichloro-3-phenylquinolin-6-yl)(1-(3-methoxypropyl)-1H-imidazol-5-yl)methanol]: the Kd in test [1] was 1100 nM. Also, on human RORγt LBD, the IC50 amounted to 1300 nM and the inhibition at 6 µM stood at 97%.

Consider `OC(c1ccc(Cl)cc1)(c1cccnc1)c1ccc2nc(-c3cccnc3)c(-c3ccccc3)c(Cl)c2c1` (stereo not drawn) [Example 151, (4-Chloro-3-phenyl-2-(pyridin-3-yl)quinolin-6-yl)(4-chlorophenyl)(pyridin-3-yl)methanol], for which the Kd in test [1] is 5000 nM. At human RORγt LBD, half-maximal inhibition (IC50) was put at 2200 nM and the inhibition at 6 µM worked out at 85%.

As for `Cn1cncc1C(O)(c1ccncc1)c1cc(F)c2nc(Cl)c(-c3ccccc3)c(Cl)c2c1` (stereo not drawn) [Example 155, (2,4-Dichloro-8-fluoro-3-phenylquinolin-6-yl)(1-methyl-1H-imidazol-5-yl)(pyridin-4-yl)methanol•TFA], the Kd in test [1] is 68 nM. For the same compound, on human RORγt LBD, the midpoint of inhibition, the IC50, lay at 110 nM and the inhibition at 6 µM amounted to 96%.

As for `Cc1ccc(C(O)(c2cc(C)c3nc(Cl)c(-c4ccccc4)c(Cl)c3c2)c2cncn2C)cn1` (stereo not drawn) [Example 156, (2,4-Dichloro-8-methyl-3-phenylquinolin-6-yl)(1-methyl-1H-imidazol-5-yl)(6-methylpyridin-3-yl)methanol•TFA], in test [1], the Kd was 57 nM. Besides, on human RORγt LBD, the IC50 was determined as 320 nM and the inhibition at 6 µM is 98%.

On to `Cn1cncc1C(O)(c1ccncc1)c1ccc2nc(Cl)c(-c3ccccc3)c(Cl)c2c1F` (stereo not drawn) [Example 162, (2,4-Dichloro-5-fluoro-3-phenylquinolin-6-yl)(1-methyl-1H-imidazol-5-yl)(pyridin-4-yl)methanol•TFA], for which the Kd in test [1] is 200 nM. Moreover, on human RORγt LBD, 910 nM corresponded to half-maximal inhibition (IC50) and the inhibition at 6 µM amounted to 92%.

As to `Cn1cncc1C(O)(c1ccc(Cl)cc1)c1ccc2nc(Cl)c(-c3ccccc3)c(Cl)c2c1F` (stereo not drawn) [Example 163, (4-Chlorophenyl)(2,4-dichloro-5-fluoro-3-phenylquinolin-6-yl)(1-methyl-1H-imidazol-5-yl)methanol•TFA], the Kd in test [1] is 1200 nM. Further, on human RORγt LBD, the IC50 amounted to 1400 nM and the inhibition at 6 µM is 87%.

Regarding `OC(c1ccccc1)(c1ccc2nc(C(F)(F)F)c(-c3ccccc3)c(C(F)(F)F)c2c1)C1CCNCC1` (stereo not drawn) [Example 167, Phenyl(3-phenyl-2,4-bis(trifluoromethyl)quinolin-6-yl)(piperidin-4-yl)methanol•TFA], the Kd in test [1] was 400 nM. At human RORγt LBD, the IC50 is above 6000 nM and the inhibition at 6 µM stood at 62%.
